Columns and labels:
[1] = system: young cells (human fibroblasts); test: Cell proliferation by counting live cells (trypan blue), young cells; assay type: cell-based; details: serum-starved 2 days, counted day 1, 2, 4, 30 μM LPA, 300 μM ACI, 10 mM AMPKI, 10 mM AICAR
Experimental: (§1) Human fibroblasts were prepared by primary culture of foreskin of a newborn baby (Boyce and Ham, 1983). The primary culture was performed in DMEM supplemented with 10% FBS and 1% antibiotics. The protein contents of young cells from the early stage of sub-culture, with a population doubling (PD) of less than 25, were compared to those of at least PD 65-70 senescent cells. […] In senescent cells, the activity of beta-galactosidase was increased and cell proliferation was reduced (Yeo et al., 2000).
(§2) Prior to LPA and ACI treatment, cells were grown for 1-2 days to 60-70% sub-confluence in DMEM-containing culture medium, and then serum-starved to quiescence (that is Go/G1 arrest) by incubation in a serum-free medium containing 0.1% bovine serum albumin (BSA) for 2 days. Young and senescent cells were treated with LPA, ACI, LPA+ACI, AMPKI and AICAR, respectively. Live cells were measured after staining the cells with trypan blue on day 1, day 2 and day 4 to confirm cell proliferation.
(§3) Cell proliferation and cAMP level were increased by LPA in senescent cells (Yeo et al., 2002). The AC inhibitor (ACI) was added to reduce cAMP which had been increased by LPA. And then, cell proliferation was investigated. Cells were cultured in serum-free medium for 2 days to arrest them in G0/G1 phase. Then, the cells were treated with LPA, ACI or LPA+ACI. Total cell number was measured on day 1, day 2 and day 4, or the cells entered into S phase were counted to evaluate cell proliferation. When young cells were treated with 300 μM of ACI, cell proliferation was reduced, compared with control (FIG. 1A). In the meantime, when senescent cells were treated with 300 μM of ACI, cell proliferation was increased, compared with control (FIG. 1B).

[2] = system: senescent cells (human fibroblasts); test: Cell proliferation by counting live cells (trypan blue), senescent cells; assay type: cell-based; details: serum-starved 2 days, counted day 1, 2, 4, 30 μM LPA, 300 μM ACI, 10 mM AMPKI, 10 mM AICAR
Experimental: as §1, §2, §3

[3] = system: fibroblasts (young and senescent cells); test: Soft agar assay (colony formation); assay type: cell-based, human; details: 30 μM LPA, 300 μM ACI, three weeks
Experimental: Young and senescent cells were distributed in DMEM containing 10% bovine serum and 0.3% top agar, which were loaded on 0.6% basic agar layer in 60 mm culture dish. The cells treated with 30 μM LPA (L), 300 μM ACI (A), or both LPA and ACI for three weeks were fixed with 70% ethanol, and so was the control treated with nothing. After staining the cells with trypan blue, colonies were counted under microscope. HeLa and HepG2 cancer cell lines were distributed on soft agar dish, as positive controls, followed by treatment with LPA, ACI, or LPA+ACI. Colony formation was also analysed. The number of colonies formed in soft agar dish was plotted as mean+/− standard deviation and each measurement was repeated at least three times.
LPA and ACI were treated to fibroblast and cancer cell groups, followed by soft agar assay. […] From the above results, it was confirmed that LPA and ACI induce normal cell proliferation but not cause any transformation of cells to turn them into tumor.

p-Thr172-AMPKα = test: Immuno-blotting of p-Thr172-AMPKα; assay type: cell-based, human; details: for p-Thr172-AMPKα expression after suppressing PKA: senescent cells pre-treated with 10 mM PKA inhibitor Rp-cAMP for one hour; for Thr172-AMPKα phosphorylation: 30 μM LPA, 300 μM ACI, 10 mM AMPKI, 10 mM AICAR, up to day 4
Experimental: (§4) (A) and (B): Young and senescent cells were serum-starved for 2 days, followed by treatment with 10 mM of AMPK inhibitor […]) or 10 mM of AMPK activator AICAR(B) for 4 days. Proteins were extracted from the treated cells and the levels of AMPKα and p-Thr172-AMPKα, total p53, p-Ser15-p53 and […] measured by immuno-blotting. (C) and (D): Young cells (C) and senescent cells (D) were treated with 10 mM AMPKI or 10 mM AICAR and cultured for 4 days, followed by measurement of cell proliferation by cell counting. At this time, the experiment was repeated three times (p<0.001). (A) and (B) are photographs illustrating the results of immuno-blotting. Precisely, sub-cultured young cells (PD 18: A) and senescent cells (PD 64: B) were treated with 30 μM of LPA […] and ACI singly or together, followed by further culture for 1, 2, and 4 days. Proteins were extracted from the cultured cells and the levels of AMPKα, […] β-actin were quantified by immuno-blotting. (A) and (B) are photographs illustrating the results of immuno-blotting. Precisely, senescent cells (PD 64) were pre-treated with 10 mM of PKA inhibitor Rp-cAMP for one hour, followed by treatment with LPA(A) or ACI(B). After culturing the cells for 1, 2, and 4 days, proteins were extracted from the cultured cells and the levels of AMPKα, […] β-actin were quantified by immuno-blotting using 45 μg of the protein. To analyse protein expression, human fibroblasts were lysed in cold lysis buffer (25 mM Hepes, pH 8.0, 150 mM NaCl, 1 mM EDTA, 1 mM Na3VO4, 1 mM NaF, 1% Triton X-100 and protease inhibitors), followed by centrifugation at 4° C. at 9,000 rpm for 10 minutes to obtain supernatant. Protein in the extract was quantified […]. SDS-PAGE electrophoresis was performed with equal amount of the protein (45 μg) to separate. The separated protein was transferred onto NC membrane from the electrophoresis gel. Non-specific protein binding was blocked by blocking the blot (transferred NC membrane) using TTBS […] containing 5% skim milk for one hour. Then, antigen-antibody reaction was induced with diluted primary antibody at 4° C. for overnight. The blot was washed with TTBS, followed by reaction with horseradish peroxidase conjugated anti-IgGs diluted in TTBS containing 5% skim milk (1:5000) at room temperature for one hour. The blot was washed again with TTBS to eliminate non-specific binding of antigen-antibody. Photographs were developed/printed on X-ray film (Kodak) using ECL kit (Pierce) containing peroxidase substrate to identify each protein.

p-Ser15-p53 = test: Immuno-blotting of p-Ser15-p53; assay type: cell-based, human; details: for p-Ser15-p53 expression after suppressing PKA: senescent cells pre-treated with 10 mM PKA inhibitor Rp-cAMP for one hour; for p-Ser15-p53 expression: senescent cells, 30 μM LPA, 300 μM ACI, 10 mM AMPKI, 10 mM AICAR
Experimental: as §4

colony formation in soft agar (transformation) [3]	Molecule	cell proliferation (cell number) compared with control [1]	cell proliferation (cell number) compared with control [2]	p-Thr172-AMPKα expression after suppressing PKA (p-Thr172-AMPKα)	Thr172-AMPKα phosphorylation (p-Thr172-AMPKα; senescent cells)	Thr172-AMPKα phosphorylation (p-Thr172-AMPKα; young cells)	p-Ser15-p53 expression after suppressing PKA (p-Ser15-p53)	p-Ser15-p53 expression (p-Ser15-p53)
did not form any colony	Nc1ncnc2c1ncn2C1CCCO1 (stereo not shown) [ACI, 9-(tetrahydro-2′-furyl)adenine]	reduced	increased	not changed	reduced	began to increase	not changed	reduced
did not form any colony	lysophosphatidic acid [LPA]	increased	increase	not changed at all	reduced	reduced	not changed at all	reduced
